Source: PubChem BioAssay AID1918937 (Molecular Pharmacology Branch, DTP, NCI, 2023)

Test system: 521955-158-R2-J5-PDC complex spheroid viability
Assay: Anticancer human tumor 521955-158-R2-J5-PDC patient-derived pancreatic carcinoma cell line growth inhibition
Conditions: for IC50: curve of first compound; for viability, T/C: stronger effect = lower value
In short: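 Complex spheroids of tumor cells with HUVEC and human MSCs, exposed to iadademstat combined with other agents. Each agent tested in half-log steps from near clinical Cmax (else 10 microM top), DMSO ≤0.25%.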

[1] = second compound 0.1 µM, first compound 0.0316 µM
[2] = second compound 0.1 µM, first compound 0.1 µM
[3] = second compound 0.1 µM, first compound 0.316 µM
[4] = second compound 0.1 µM, first compound 1 µM
[5] = second compound 0.316 µM, first compound 0.0316 µM
[6] = second compound 0.316 µM, first compound 0.1 µM
[7] = second compound 0.316 µM, first compound 0.316 µM
[8] = second compound 0.316 µM, first compound 1 µM
[9] = second compound 1 µM, first compound 0.0316 µM
[10] = second compound 1 µM, first compound 0.1 µM
[11] = second compound 1 µM, first compound 0.316 µM
[12] = second compound 1 µM, first compound 1 µM
[13] = second compound 3.16 µM, first compound 0.0316 µM
[14] = second compound 3.16 µM, first compound 0.1 µM
[15] = second compound 3.16 µM, first compound 0.316 µM
[16] = second compound 3.16 µM, first compound 1 µM
[17] = second compound 10 µM, first compound 0.0316 µM
[18] = second compound 10 µM, first compound 0.1 µM
[19] = second compound 10 µM, first compound 0.316 µM
[20] = second compound 10 µM, first compound 1 µM
[21] = second compound 0.1 µM, first compound 0.00949 µM
[22] = second compound 0.1 µM, first compound 0.03 µM
[23] = second compound 0.1 µM, first compound 0.0949 µM
[24] = second compound 0.1 µM, first compound 0.3 µM
[25] = second compound 0.1 µM, first compound 0.949 µM
[26] = second compound 0.1 µM, first compound 3 µM
[27] = second compound 0.316 µM, first compound 0.00949 µM
[28] = second compound 0.316 µM, first compound 0.03 µM
[29] = second compound 0.316 µM, first compound 0.0949 µM
[30] = second compound 0.316 µM, first compound 0.3 µM
[31] = second compound 0.316 µM, first compound 0.949 µM
[32] = second compound 0.316 µM, first compound 3 µM
[33] = second compound 1 µM, first compound 0.00949 µM
[34] = second compound 1 µM, first compound 0.03 µM
[35] = second compound 1 µM, first compound 0.0949 µM
[36] = second compound 1 µM, first compound 0.3 µM
[37] = second compound 1 µM, first compound 0.949 µM
[38] = second compound 1 µM, first compound 3 µM
[39] = second compound 3.16 µM, first compound 0.00949 µM
[40] = second compound 3.16 µM, first compound 0.03 µM
[41] = second compound 3.16 µM, first compound 0.0949 µM
[42] = second compound 3.16 µM, first compound 0.3 µM
[43] = second compound 3.16 µM, first compound 0.949 µM
[44] = second compound 3.16 µM, first compound 3 µM
[45] = second compound 10 µM, first compound 0.00949 µM
[46] = second compound 10 µM, first compound 0.03 µM
[47] = second compound 10 µM, first compound 0.0949 µM
[48] = second compound 10 µM, first compound 0.3 µM
[49] = second compound 10 µM, first compound 0.949 µM
[50] = second compound 10 µM, first compound 3 µM
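Note: spheroids exposed to agents for seven days.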
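Throughout, for viability, T/C: percent of DMSO vehicle control luminescence viability.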

## O=C(C=Cn1cnc(-c2cc(C(F)(F)F)cc(C(F)(F)F)c2)n1)NNc1cnccn1 + NC1CCC(NC2CC2c2ccccc2)CC1
Second compound 0.1 µM
  IC50: < 3.16 nM
Second compound 0.316 µM
  IC50: < 3.16 nM
Second compound 1 µM
  IC50: < 3.16 nM
Second compound 3.16 µM
  IC50: < 3.16 nM
Second compound 10 µM
  IC50: < 3.16 nM
Second compound 0.1 µM, first compound 0.00316 µM
  viability, T/C: 40.4%
Second compound 0.1 µM, first compound 0.01 µM
  viability, T/C: 42%
[1]
  viability, T/C: 45.4%
[2]
  viability, T/C: 35.8%
[3]
  viability, T/C: 19%
[4]
  viability, T/C: 14.7%
Second compound 0.316 µM, first compound 0.00316 µM
  viability, T/C: 40.8%
Second compound 0.316 µM, first compound 0.01 µM
  viability, T/C: 33.4%
[5]
  viability, T/C: 52.3%
[6]
  viability, T/C: 40.6%
[7]
  viability, T/C: 21.5%
[8]
  viability, T/C: 16.1%
Second compound 1 µM, first compound 0.00316 µM
  viability, T/C: 37.7%
Second compound 1 µM, first compound 0.01 µM
  viability, T/C: 31.5%
[9]
  viability, T/C: 52.4%
[10]
  viability, T/C: 38.4%
[11]
  viability, T/C: 26.8%
[12]
  viability, T/C: 17.2%
Second compound 3.16 µM, first compound 0.00316 µM
  viability, T/C: 40.2%
Second compound 3.16 µM, first compound 0.01 µM
  viability, T/C: 41.1%
[13]
  viability, T/C: 36.1%
[14]
  viability, T/C: 41.5%
[15]
  viability, T/C: 21.6%
[16]
  viability, T/C: 17.1%
Second compound 10 µM, first compound 0.00316 µM
  viability, T/C: 32.2%
Second compound 10 µM, first compound 0.01 µM
  viability, T/C: 29.3%
[17]
  viability, T/C: 35.3%
[18]
  viability, T/C: 29%
[19]
  viability, T/C: 24.1%
[20]
  viability, T/C: 13.3%

## O=C(C=Cc1cccc(S(=O)(=O)Nc2ccccc2)c1)NO + NC1CC1c1ccc(-c2cccc(O)c2)cc1
Second compound 0.1 µM
  IC50: 459 nM
Second compound 0.316 µM
  IC50: 438 nM
Second compound 1 µM
  IC50: 446 nM
Second compound 3.16 µM
  IC50: 347 nM
Second compound 10 µM
  IC50: 356 nM
[21]
  viability, T/C: 103%
[22]
  viability, T/C: 113%
[23]
  viability, T/C: 82.4%
[24]
  viability, T/C: 62.8%
[25]
  viability, T/C: 30.1%
[26]
  viability, T/C: 0.42%
[27]
  viability, T/C: 94.1%
[28]
  viability, T/C: 102%
[29]
  viability, T/C: 91.1%
[30]
  viability, T/C: 61.8%
[31]
  viability, T/C: 23.8%
[32]
  viability, T/C: 0.53%
[33]
  viability, T/C: 97.7%
[34]
  viability, T/C: 107%
[35]
  viability, T/C: 87.8%
[36]
  viability, T/C: 65.8%
[37]
  viability, T/C: 22.1%
[38]
  viability, T/C: 1.1%
[39]
  viability, T/C: 112%
[40]
  viability, T/C: 101%
[41]
  viability, T/C: 89.1%
[42]
  viability, T/C: 55.5%
[43]
  viability, T/C: 17.1%
[44]
  viability, T/C: 0.23%
[45]
  viability, T/C: 112%
[46]
  viability, T/C: 112%
[47]
  viability, T/C: 83.7%
[48]
  viability, T/C: 61%
[49]
  viability, T/C: 14.7%
[50]
  viability, T/C: 0.31%

## COc1ccc([C@@H](O)c2cc(-c3ncnc4cc(N5CCOCC5)ccc34)c(F)cc2Cl)nn1 + NC1CC1c1ccc(-c2cccc(O)c2)cc1
Second compound 0.1 µM
  IC50: 1230 nM
Second compound 0.316 µM
  IC50: 1640 nM
Second compound 1 µM
  IC50: 1310 nM
Second compound 3.16 µM
  IC50: 1210 nM
Second compound 10 µM
  IC50: 836 nM
[1]
  viability, T/C: 72.7%
[2]
  viability, T/C: 78.3%
[3]
  viability, T/C: 73.6%
[4]
  viability, T/C: 49.9%
Second compound 0.1 µM, first compound 3.16 µM
  viability, T/C: 36.5%
Second compound 0.1 µM, first compound 10 µM
  viability, T/C: 21.6%
[5]
  viability, T/C: 74.3%
[6]
  viability, T/C: 69.5%
[7]
  viability, T/C: 68.2%
[8]
  viability, T/C: 57.6%
Second compound 0.316 µM, first compound 3.16 µM
  viability, T/C: 39.9%
Second compound 0.316 µM, first compound 10 µM
  viability, T/C: 20.6%
[9]
  viability, T/C: 76.1%
[10]
  viability, T/C: 72%
[11]
  viability, T/C: 63.1%
[12]
  viability, T/C: 55.5%
Second compound 1 µM, first compound 3.16 µM
  viability, T/C: 37.3%
Second compound 1 µM, first compound 10 µM
  viability, T/C: 20.5%
[13]
  viability, T/C: 74.5%
[14]
  viability, T/C: 78.7%
[15]
  viability, T/C: 65.4%
[16]
  viability, T/C: 53.1%
Second compound 3.16 µM, first compound 3.16 µM
  viability, T/C: 35.2%
Second compound 3.16 µM, first compound 10 µM
  viability, T/C: 21.7%
[17]
  viability, T/C: 75.3%
[18]
  viability, T/C: 70.6%
[19]
  viability, T/C: 59.8%
[20]
  viability, T/C: 49.9%
Second compound 10 µM, first compound 3.16 µM
  viability, T/C: 31.8%
Second compound 10 µM, first compound 10 µM
  viability, T/C: 21.6%

## COc1cc(C2c3cc4c(cc3C(OC3OC5COC(C)OC5C(O)C3O)C3COC(=O)C23)OCO4)cc(OC)c1O (stereo not given) + NC1CC1c1ccc(-c2cccc(O)c2)cc1
Second compound 0.1 µM
  IC50: 198 nM
Second compound 0.316 µM
  IC50: 227 nM
Second compound 1 µM
  IC50: 249 nM
Second compound 3.16 µM
  IC50: 181 nM
Second compound 10 µM
  IC50: 265 nM
[21]
  viability, T/C: 86.6%
[22]
  viability, T/C: 94.8%
[23]
  viability, T/C: 66.2%
[24]
  viability, T/C: 39.9%
[25]
  viability, T/C: 23%
[26]
  viability, T/C: 15.3%
[27]
  viability, T/C: 87.3%
[28]
  viability, T/C: 83.6%
[29]
  viability, T/C: 66.3%
[30]
  viability, T/C: 44.6%
[31]
  viability, T/C: 27.8%
[32]
  viability, T/C: 19.2%
[33]
  viability, T/C: 84.2%
[34]
  viability, T/C: 87.2%
[35]
  viability, T/C: 64%
[36]
  viability, T/C: 47.1%
[37]
  viability, T/C: 30.9%
[38]
  viability, T/C: 20.2%
[39]
  viability, T/C: 89.4%
[40]
  viability, T/C: 88.5%
[41]
  viability, T/C: 53.8%
[42]
  viability, T/C: 44.4%
[43]
  viability, T/C: 30.3%
[44]
  viability, T/C: 19.8%
[45]
  viability, T/C: 95.9%
[46]
  viability, T/C: 83.6%
[47]
  viability, T/C: 67.5%
[48]
  viability, T/C: 49.8%
[49]
  viability, T/C: 30.6%
[50]
  viability, T/C: 27%
